Data: PubChem BioAssay (NCI)
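Step 1: Grow cells in 96-well plates. Step 2: Expose to compound for 48 hours at 5 concentrations. Step 3: Interpolate endpoints linearly; if unreached, use highest concentration. Here, GI50 denotes the concentration required for 50% inhibition of growth. TGI marks complete inhibition of growth.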

Key:
Assay in all cases: NCI-60 cell line screen, 48 h
[1] = tested on: 786-0 renal
[2] = tested on: A498 renal
[3] = tested on: A549 NSCLC
[4] = tested on: ACHN renal
[5] = tested on: BT-549 breast
[6] = tested on: CAKI-1 renal
[7] = tested on: CCRF-CEM leukemia
[8] = tested on: COLO 205 colon
[9] = tested on: DU-145 prostate
[10] = tested on: EKVX NSCLC
[11] = tested on: HCC-2998 colon
[12] = tested on: HCT-116 colon
[13] = tested on: HCT-15 colon
[14] = tested on: HL-60(TB) leukemia
[15] = tested on: HOP-62 NSCLC
[16] = tested on: HOP-92 NSCLC
[17] = tested on: HS 578T breast
[18] = tested on: HT29 colon
[19] = tested on: IGROV1 ovarian
[20] = tested on: K-562 leukemia
[21] = tested on: KM12 colon
[22] = tested on: LOX IMVI melanoma
[23] = tested on: M14 melanoma
[24] = tested on: MALME-3M melanoma
[25] = tested on: MCF7 breast
[26] = tested on: MDA-MB-231 breast
[27] = tested on: MDA-MB-435
[28] = tested on: MOLT-4 leukemia
[29] = tested on: NCI-H226 lung
[30] = tested on: NCI-H460 lung
[31] = tested on: NCI-H522 lung
[32] = tested on: NCI/ADR-RES ovarian
[33] = tested on: OVCAR-3 ovarian
[34] = tested on: OVCAR-4 ovarian
[35] = tested on: OVCAR-5 ovarian
[36] = tested on: OVCAR-8 ovarian
[37] = tested on: PC-3 prostate
[38] = tested on: RPMI-8226 leukemia
[39] = tested on: RXF 393 renal
[40] = tested on: SF-268 CNS
[41] = tested on: SF-295 CNS
[42] = tested on: SF-539 CNS
[43] = tested on: SK-MEL-2 melanoma
[44] = tested on: SK-MEL-28 melanoma
[45] = tested on: SK-MEL-5 melanoma
[46] = tested on: SK-OV-3 ovarian
[47] = tested on: SN12C renal
[48] = tested on: SNB-19 CNS
[49] = tested on: SNB-75 CNS
[50] = tested on: SR leukemia
[51] = tested on: SW-620 colon
[52] = tested on: T-47D breast
[53] = tested on: TK-10 renal
[54] = tested on: U251 CNS
[55] = tested on: UACC-257 melanoma
[56] = tested on: UACC-62 melanoma
[57] = tested on: UO-31 renal

`CCNC(=O)N1CCc2cc(OC)c(OCCc3ccc(OC)c(N)c3)cc2C1c1ccc(C)cc1C` (stereo not drawn) was tested, and the GI50 [1] was 0.165 µM, the TGI [1] was 92 µM and the GI50 [2] was 2.78 µM. The GI50 [3] was 0.151 µM, the TGI [3] was > 100 µM and the GI50 [4] was 0.121 µM. The TGI [4] was > 60.4 µM, the GI50 [5] was 0.349 µM and the TGI [5] was 3.46 µM. The GI50 [6] was 0.161 µM, the TGI [6] was 31.4 µM and the GI50 [7] was 0.0586 µM. For the same compound, the TGI [7] was > 76.6 µM, the GI50 [8] was 0.318 µM and the TGI [8] was 2.82 µM. For the same compound, the GI50 [9] was 0.208 µM, the TGI [9] was > 40.8 µM and the GI50 [10] was 1.51 µM. For the same compound, the TGI [10] was > 100 µM, the GI50 [11] was 0.344 µM and the TGI [11] was 23.3 µM. The GI50 [12] was 0.0311 µM, the TGI [12] was 25.8 µM and the GI50 [13] was < 0.0263 µM. For the same compound, the TGI [13] was > 100 µM, the GI50 [14] was 0.1 µM and the TGI [14] was 1.82 µM. The GI50 [15] was 0.226 µM, the TGI [15] was > 46.4 µM and the GI50 [16] was 4.81 µM. For the same compound, the TGI [16] was 56.7 µM, the GI50 [17] was 0.273 µM and the TGI [17] was 23.8 µM. For the same compound, the GI50 [18] was 0.261 µM, the TGI [18] was 1.77 µM and the GI50 [19] was 0.132 µM. For the same compound, the TGI [19] was > 100 µM, the GI50 [20] was 0.0291 µM and the TGI [20] was > 100 µM. It also gave a GI50 [21] of 0.493 µM, a TGI [21] of 65.9 µM and a GI50 [22] of 0.0365 µM. It also gave a TGI [22] of 1.74 µM, a GI50 [23] of 0.205 µM and a TGI [23] of 15.2 µM. For the same compound, the GI50 [24] was 0.624 µM, the TGI [24] was 76.1 µM and the GI50 [25] was 0.0634 µM. The TGI [25] was > 83.5 µM, the GI50 [26] was 0.134 µM and the TGI [26] was > 56.3 µM. It also gave a GI50 [27] of 0.139 µM, a TGI [27] of 0.496 µM and a GI50 [28] of 0.0384 µM. For the same compound, the TGI [28] was > 100 µM, the GI50 [29] was 0.643 µM and the TGI [29] was 14.6 µM. For the same compound, the GI50 [30] was 0.0309 µM, the TGI [30] was 1.89 µM and the GI50 [31] was 0.0984 µM. It also gave a TGI [31] of 0.44 µM, a GI50 [32] of 0.229 µM and a TGI [32] of 2.46 µM. The GI50 [33] was 0.15 µM, the TGI [33] was 22.2 µM and the GI50 [34] was 1.47 µM. The TGI [34] was > 100 µM, the GI50 [35] was 0.538 µM and the TGI [35] was > 100 µM. For the same compound, the GI50 [36] was 0.105 µM, the TGI [36] was 34.3 µM and the GI50 [37] was 0.0548 µM. For the same compound, the TGI [37] was > 100 µM, the GI50 [38] was 0.0899 µM and the TGI [38] was 1.6 µM. For the same compound, the GI50 [39] was 0.234 µM, the TGI [39] was 5.01 µM and the GI50 [40] was 0.278 µM. The TGI [40] was > 95.3 µM, the GI50 [41] was 0.164 µM and the TGI [41] was 11.1 µM. For the same compound, the GI50 [42] was 0.0771 µM, the TGI [42] was 1.74 µM and the GI50 [43] was 0.996 µM. It also gave a TGI [43] of 14.4 µM, a GI50 [44] of 0.283 µM and a TGI [44] of 23.3 µM. For the same compound, the GI50 [45] was 0.106 µM, the TGI [45] was 1.7 µM and the GI50 [46] was 0.533 µM. The TGI [46] was > 90 µM, the GI50 [47] was 0.294 µM and the TGI [47] was 22.2 µM. The GI50 [48] was 0.191 µM, the TGI [48] was > 100 µM and the GI50 [49] was 0.184 µM. For the same compound, the TGI [49] was 4.27 µM, the GI50 [50] was 0.027 µM and the TGI [50] was 6.24 µM. The GI50 [51] was 0.106 µM, the TGI [51] was > 100 µM and the GI50 [52] was 0.28 µM. For the same compound, the TGI [52] was 92.8 µM, the GI50 [53] was 2.14 µM and the TGI [53] was > 100 µM. For the same compound, the GI50 [54] was 0.0743 µM, the TGI [54] was 24.6 µM and the GI50 [55] was 0.533 µM. The TGI [55] was > 82 µM, the GI50 [56] was 0.105 µM and the TGI [56] was 2.75 µM. The GI50 [57] was 0.238 µM and the TGI [57] was > 95 µM.
